Laboratory results from PubChem BioAssay (NCI).
Where “and” joins values, the source holds several entries; their conditions need not be identical. Identical values can stand only once.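 Step 1: Grow cells in 96-well plates. Step 2: Expose to compound for 48 hours at 5 concentrations. Step 3: Interpolate endpoints linearly; if unreached, use highest concentration. Here, GI50 denotes the concentration required for 50% inhibition of growth. TGI is the concentration that stops growth completely.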

How the values were obtained:
Experiment in all cases: NCI anticancer screen, dose series, 48 h
[1] = tested on: A549 NSCLC
[2] = tested on: HCT-15 colon
[3] = tested on: HL-60(TB) leukemia
[4] = tested on: KM12 colon
[5] = tested on: OVCAR-8 ovarian
[6] = tested on: SNB-75 CNS
[7] = tested on: TK-10 renal
[8] = tested on: UACC-257 melanoma
[9] = tested on: HT29 colon
[10] = tested on: T-47D breast

COC(=O)c1cc2c(s1)C(=O)c1ccccc1-2
TGI [1]: > 100 µM | TGI [2]: > 100 µM | TGI [3]: > 100 µM | TGI [4]: > 100 µM | TGI [5]: > 100 µM | TGI [6]: > 100 µM | TGI [7]: > 100 µM | TGI [8]: > 100 µM

O=C(OC(CNc1cc(=O)n(Cc2ccccc2)c(=O)n1Cc1ccccc1)CN1CCCC1)c1ccccc1 (stereo not given)
GI50 [1]: > 100 µM | TGI [1]: > 100 µM | GI50 [2]: > 100 µM | TGI [2]: > 100 µM | GI50 [9]: 35 µM | TGI [9]: > 100 µM | GI50 [4]: > 100 µM | TGI [4]: > 100 µM | GI50 [5]: > 100 µM | TGI [5]: > 100 µM | GI50 [6]: 16.5 µM | TGI [6]: > 100 µM | GI50 [10]: 18.9 µM | TGI [10]: > 100 µM | GI50 [7]: > 100 µM | TGI [7]: > 100 µM | GI50 [8]: > 100 µM | TGI [8]: > 100 µM

Cn1c2c(c3ccccc31)C1CCCCCCC1C1C(=O)OC(=O)C21 (stereo not given)
TGI [1]: > 100 µM | TGI [2]: > 100 µM | TGI [3]: 63.1 µM | TGI [9]: > 100 µM | TGI [4]: > 100 µM | TGI [5]: > 100 µM | TGI [6]: > 100 µM | TGI [7]: > 100 µM

S=C(Nc1ccccc1)N(/N=C/C=C/c1ccccc1)c1nnc(-c2ccccc2)c(-c2ccccc2)n1
TGI [1]: > 100 µM | TGI [2]: > 100 µM | TGI [3]: 52.4 µM | TGI [9]: > 100 µM | TGI [4]: > 100 µM | TGI [5]: > 100 µM | TGI [6]: > 100 µM | TGI [7]: > 100 µM | TGI [8]: > 100 µM

O=C(CCn1[nH]c(=O)c(Cl)c(Cl)c1=O)NO
TGI [1]: > 100 µM | TGI [2]: > 100 µM | TGI [3]: > 100 µM | TGI [9]: > 100 µM | TGI [4]: > 100 µM | TGI [5]: > 100 µM | TGI [6]: > 100 µM | TGI [7]: > 100 µM | TGI [8]: > 100 µM

COc1cc(C(Cc2ccccc2)NC(C)=O)oc(=O)c1 (stereo not given)
TGI [1]: > 100 µM | TGI [2]: > 100 µM | TGI [3]: > 100 µM | TGI [9]: > 100 µM | TGI [4]: > 100 µM | TGI [5]: > 100 µM | TGI [6]: > 100 µM | TGI [7]: > 100 µM | TGI [8]: > 100 µM

CC1(C)COC(c2cccnc2/C=N/O)=N1
TGI [1]: > 100 µM | TGI [2]: > 100 µM | TGI [3]: > 100 µM | TGI [9]: > 100 µM | TGI [4]: > 100 µM | TGI [5]: > 100 µM | TGI [6]: > 100 µM | TGI [7]: > 100 µM | TGI [8]: > 100 µM

N#CC(N)(C(=O)CCC(=O)Nc1cccc(Cl)c1)c1ccc(Cl)cc1 (stereo not given)
TGI [1]: > 100 µM | TGI [2]: > 100 µM | TGI [3]: > 100 µM | TGI [9]: > 100 µM | TGI [4]: > 100 µM | TGI [5]: > 100 µM | TGI [6]: > 100 µM | TGI [7]: > 100 µM | TGI [8]: > 100 µM

Cn1c2ccccc2c2c3c(c4c5cc(Br)ccc5n(C)c4c21)C(=O)N(O)C3=O
GI50 [1]: 0.262 µM | TGI [1]: > 100 µM | GI50 [2]: 0.199 µM | TGI [2]: > 100 µM | GI50 [4]: 0.426 µM | TGI [4]: > 100 µM | GI50 [5]: 0.113 µM | TGI [5]: > 100 µM | GI50 [6]: 0.0595 µM | TGI [6]: 0.659 µM | GI50 [7]: 27.7 µM | TGI [7]: > 100 µM | GI50 [8]: 0.264 µM | TGI [8]: > 100 µM

Cc1ccc(S(=O)(=O)N(CC(=O)O)c2ccccc2)cc1
TGI [1]: > 100 µM | TGI [2]: > 100 µM | TGI [3]: > 100 µM | TGI [9]: > 100 µM | TGI [4]: > 100 µM | TGI [5]: > 100 µM | TGI [6]: > 100 µM | TGI [7]: > 100 µM | TGI [8]: > 100 µM

Cc1nn(-c2ccccc2)c2nc(N3CCOCC3)nnc12
TGI [1]: > 100 µM | TGI [2]: > 100 µM | TGI [9]: > 100 µM | TGI [4]: > 100 µM | TGI [5]: > 100 µM | TGI [6]: > 100 µM | TGI [7]: > 100 µM | TGI [8]: > 100 µM

CO/N=C/c1cc(OC)c(OC)c(OC)c1
TGI [1]: > 100 µM | TGI [2]: > 100 µM | TGI [3]: > 100 µM | TGI [9]: > 100 µM | TGI [4]: > 100 µM | TGI [5]: > 100 µM | TGI [6]: > 100 µM | TGI [7]: > 100 µM | TGI [8]: > 100 µM

Cc1cc(CC(O)c2ccc(Cl)c(Cl)c2)nc(=O)[nH]1 (stereo not given)
TGI [1]: 66 µM | TGI [2]: > 100 µM | TGI [3]: > 100 µM | TGI [9]: > 100 µM | TGI [4]: > 100 µM | TGI [5]: > 100 µM | TGI [6]: 48.8 µM | TGI [7]: > 100 µM | TGI [8]: > 100 µM

Cc1cc(N)c(C)c2c1[nH]c1ccc(O)cc12
TGI [1]: > 100 µM | TGI [2]: > 100 µM | TGI [3]: > 100 µM | TGI [9]: > 100 µM | TGI [4]: > 100 µM | TGI [5]: > 100 µM | TGI [7]: > 100 µM | TGI [8]: > 100 µM

CCC[CH2][Sn]1([CH2]CCC)[O]N=C(c2ccccc2)C(c2ccccc2)[O]1 (stereo not given)
GI50 [1]: 10.5 µM | TGI [1]: 22.3 µM | GI50 [2]: 1.46 µM | TGI [2]: 2.77 µM | GI50 [3]: 0.263 µM | TGI [3]: 1.42 µM | GI50 [9]: 2.46 µM | TGI [9]: 5.4 µM | GI50 [4]: 3.49 µM | TGI [4]: 14.1 µM | GI50 [5]: 1.87 µM | TGI [5]: 3.96 µM | GI50 [6]: 1.6 µM | TGI [6]: 4.1 µM | GI50 [7]: 1.9 µM | TGI [7]: 4.09 µM | GI50 [8]: 2.02 µM | TGI [8]: 4.51 µM

Cc1nc2c(-c3cnc(N)nc3)nc(N3CCOCC3)nc2n1C(C)C
TGI [1]: 2.66 µM | TGI [2]: > 100 µM | GI50 [3]: 0.222 µM and 0.23 µM | TGI [3]: > 5.87 µM and 20.9 µM | TGI [4]: > 10 µM and 21.8 µM | TGI [5]: > 5.51 µM and 4.37 µM | TGI [6]: 0.334 µM and 0.272 µM | TGI [10]: 0.251 µM and 0.102 µM | TGI [7]: 0.6 µM and 0.505 µM

Cc1ccc(NC(=O)C(=O)C(C(=O)c2ccc3ccccc3c2)C2OC(=O)c3ccccc32)cc1C (stereo not given)
TGI [1]: 82.4 µM | TGI [2]: 24.2 µM | TGI [3]: 44.9 µM | TGI [9]: > 100 µM | TGI [4]: 47.1 µM | TGI [5]: 66.2 µM | TGI [6]: 7.34 µM | TGI [7]: 94.6 µM | TGI [8]: 42.4 µM

C=C1C(=O)O[C@@H]2C[C@@H]1CC/C(C)=C/CC/C(C)=C/CC[C@@]2(C)O
GI50 [1]: 18.2 µM | TGI [1]: 41.2 µM | GI50 [2]: 18.2 µM | TGI [2]: 51.4 µM | GI50 [3]: 3.04 µM | TGI [3]: 8.95 µM | GI50 [9]: 31 µM | TGI [9]: > 100 µM | GI50 [4]: 3.31 µM | TGI [4]: 13.2 µM | GI50 [5]: 21.7 µM | TGI [5]: 85.4 µM | GI50 [6]: 26.4 µM | TGI [6]: 47.4 µM | GI50 [10]: 34.2 µM | TGI [10]: > 100 µM | GI50 [8]: 17.5 µM | TGI [8]: 41.9 µM

CC(C)c1ccccc1NC(=O)CCc1n[nH]c(=S)o1
TGI [1]: > 100 µM | TGI [2]: > 56.9 µM | TGI [3]: > 89.2 µM | TGI [9]: > 100 µM | TGI [4]: > 100 µM | TGI [5]: > 100 µM | TGI [6]: > 100 µM | TGI [7]: > 100 µM | TGI [8]: > 100 µM

CCOc1ccccc1C=C1c2ccccc2C(=O)c2ccccc21
TGI [1]: > 100 µM | TGI [2]: > 100 µM | TGI [3]: 8.46 µM | TGI [4]: > 100 µM | TGI [5]: 43 µM | TGI [7]: 45.6 µM | TGI [8]: 47 µM

COc1ccc(C2C(Cl)C(=O)N2n2cnc3ccccc3c2=O)cc1 (stereo not given)
TGI [1]: > 100 µM | TGI [2]: > 100 µM | TGI [3]: > 100 µM | TGI [9]: > 100 µM | TGI [4]: > 100 µM | TGI [5]: > 100 µM | TGI [6]: 86.2 µM | TGI [7]: > 100 µM | TGI [8]: > 100 µM
